Tests used:
[1] = target: T1, human recombinant GST cleaved CSNK1D (Homo sapiens, UniProt P48730); assay: Purified Enzyme Assay (ADP-Glo CSNK1D Kinase Assay); type: biochemical; conditions: 2 nM CSNK1D; peptide substrate 150 μM; ATP 20 μM; 45 minutes at room temperature
T1 construct: GST (cleaved yes); purchased University of Dundee clone DU 19064
Summary of the method: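 Percent activity derived from ADP-Glo quantification of ADP produced. Reactions: compound dose-response with human recombinant GST-cleaved CSNK1D, ATP and substrate peptide PLSRTL-pS-VASLPGL, incubated 45 min at room temperature.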

[2] = target: T2, human CSNK1D (Homo sapiens, UniProt P48730); assay: Whole Cell nBRET CSNK1D Binding Assay; conditions: living CHO cells stably expressing human CSNK1D tagged with nanoluciferase; NanoBret tracer 130 nM; 2 hours at 37 C
T2 construct: expressed in transfected cells
T2 sequence (P48730 whole entry): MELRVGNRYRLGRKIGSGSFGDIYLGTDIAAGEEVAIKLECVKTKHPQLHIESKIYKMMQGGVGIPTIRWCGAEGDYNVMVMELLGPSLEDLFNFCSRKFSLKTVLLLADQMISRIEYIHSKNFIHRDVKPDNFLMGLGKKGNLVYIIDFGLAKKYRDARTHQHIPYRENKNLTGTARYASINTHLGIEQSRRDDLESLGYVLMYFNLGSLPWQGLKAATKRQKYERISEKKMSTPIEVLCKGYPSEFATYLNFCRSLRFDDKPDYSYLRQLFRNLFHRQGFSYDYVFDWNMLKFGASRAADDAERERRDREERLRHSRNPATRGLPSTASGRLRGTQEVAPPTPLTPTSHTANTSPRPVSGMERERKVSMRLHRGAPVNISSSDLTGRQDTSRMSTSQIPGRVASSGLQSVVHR

T1 sequence (P48730 whole entry): as above

CC1(C)Cn2nc(-c3ncc(F)cc3F)c(-c3ccnc4[nH]ncc34)c2CO1 [Example 166, 2-(3,5-Difluoropyridin-2-yl)-6,6-dimethyl-3-(1H-pyrazolo[3,4-b]pyridin-4-yl)-6,7-dihydro-4H-pyrazolo[5,1-c][1,4]oxazine]
IC50 [1]: 7 nM
IC50 [2]: 102 nM

Cc1cc(-c2c(-c3ncc(F)cc3F)nn3c2COC(C)(C)C3)c2cn[nH]c2n1 [Example 167, 2-(3,5-Difluoropyridin-2-yl)-6,6-dimethyl-3-(6-methyl-1H-pyrazolo[3,4-b]pyridin-4-yl)-6,7-dihydro-4H-pyrazolo[5,1-c][1,4]oxazine]
IC50 [1]: 3 nM
IC50 [2]: 91 nM

COc1ccc2nccc(-c3c(-c4ccc(F)cn4)nn4c3COC(C)(C)C4)c2n1 [Example 168, 2-(5-Fluoropyridin-2-yl)-3-(6-methoxy-1,5-naphthyridin-4-yl)-6,6-dimethyl-6,7-dihydro-4H-pyrazolo[5,1-c][1,4]oxazine]
IC50 [1]: 19 nM
IC50 [2]: 836 nM

CNC(=O)c1cc(-c2c(-c3ccc(F)cn3)nn3c2COC(C)(C(F)(F)F)C3)ccn1 (centres unmarked) [Example 175, 4-(2-(5-Fluoropyridin-2-yl)-6-methyl-6-(trifluoromethyl)-6,7-dihydro-4H-pyrazolo[5,1-c][1,4]oxazin-3-yl)-N-methylpicolinamide]
IC50 [1]: 148 nM
IC50 [2]: 3610 nM

CC1(C(F)(F)F)Cn2nc(-c3ccc(F)cn3)c(-c3ccnc4[nH]ncc34)c2CO1 (centres unmarked) [Example 176, 2-(5-Fluoropyridin-2-yl)-6-methyl-3-(1H-pyrazolo[3,4-b]pyridin-4-yl)-6-(trifluoromethyl)-6,7-dihydro-4H-pyrazolo[5,1-c][1,4]oxazine]
IC50 [1]: 7 nM
IC50 [2]: 198 nM

O=C1OCCn2nc(-c3ccc(F)cc3)c(-c3ccnc4[nH]ncc34)c21 [Example 181, 2-(4-Fluorophenyl)-3-(1H-pyrazolo[3,4-b]pyridin-4-yl)-6,7-dihydropyrazolo[5,1-c][1,4]oxazin-4-one]
IC50 [1]: 32 nM
IC50 [2]: 3240 nM

O=C1OCCn2nc(-c3ccc(F)cn3)c(-c3ccnc4[nH]ncc34)c21 [Example 182, 2-(5-Fluoro-2-pyridyl)-3-(1H-pyrazolo[3,4-b]pyridin-4-yl)-6,7-dihydropyrazolo[5,1-c][1,4]oxazin-4-one]
IC50 [1]: 241 nM
IC50 [2]: > 10000 nM

CC(=O)Nc1cc(-c2c(-c3ccc(F)cn3)nn3c2OCCC3)ccn1 [Example 183, N-(4-(2-(5-Fluoropyridin-2-yl)-6,7-dihydro-5H-pyrazolo[5,1-b][1,3]oxazin-3-yl)pyridin-2-yl)acetamide]
IC50 [1]: 7 nM
IC50 [2]: 220 nM

Fc1ccc(-c2nn3c(c2-c2ccnc4[nH]ncc24)OCCC3)cc1 [Example 184, 2-(4-Fluorophenyl)-3-(1H-pyrazolo[3,4-b]pyridin-4-yl)-6,7-dihydro-5H-pyrazolo[5,1-b][1,3]oxazine]
IC50 [1]: 2 nM
IC50 [2]: 15 nM

Cc1cc(-c2c(-c3ccc(F)cc3)nn3c2OCCC3)c2cn[nH]c2n1 [Example 185, 2-(4-Fluorophenyl)-3-(6-methyl-1H-pyrazolo[3,4-b]pyridin-4-yl)-6,7-dihydro-5H-pyrazolo[5,1-b][1,3]oxazine]
IC50 [1]: 1 nM
IC50 [2]: 17 nM

Fc1ccc(-c2nn3c(c2-c2ccnc4[nH]ncc24)OCCC3)nc1 [Example 186, 2-(5-Fluoropyridin-2-yl)-3-(1H-pyrazolo[3,4-b]pyridin-4-yl)-6,7-dihydro-5H-pyrazolo[5,1-b][1,3]oxazine]
IC50 [1]: 9 nM
IC50 [2]: 257 nM

Cc1cc(-c2c(-c3ccc(F)cn3)nn3c2OCCC3)c2cn[nH]c2n1 [Example 187, 2-(5-Fluoropyridin-2-yl)-3-(6-methyl-1H-pyrazolo[3,4-b]pyridin-4-yl)-6,7-dihydro-5H-pyrazolo[5,1-b][1,3]oxazine]
IC50 [1]: 8 nM
IC50 [2]: 330 nM

Fc1cnc(-c2nn3c(c2-c2ccnc4[nH]ncc24)OCCC3)c(F)c1 [Example 188, 2-(3,5-Difluoro-2-pyridyl)-3-(1H-pyrazolo[3,4-b]pyridin-4-yl)-6,7-dihydro-5H-pyrazolo[5,1-b][1,3]oxazine]
IC50 [1]: 12 nM
IC50 [2]: 139 nM

Cc1cc(-c2c(-c3ncc(F)cc3F)nn3c2OCCC3)c2cn[nH]c2n1 [Example 189, 2-(3,5-Difluoro-2-pyridyl)-3-(6-methyl-1H-pyrazolo[3,4-b]pyridin-4-yl)-6,7-dihydro-5H-pyrazolo[5,1-b][1,3]oxazine]
IC50 [1]: 10 nM
IC50 [2]: 320 nM

COc1ccc2nccc(-c3c(-c4ccc(F)cn4)nn4c3OCCC4)c2n1 [Example 190, 2-(5-Fluoro-2-pyridyl)-3-(6-methoxy-1,5-naphthyridin-4-yl)-6,7-dihydro-5H-pyrazolo[5,1-b][1,3]oxazine]
IC50 [1]: 4 nM
IC50 [2]: 215 nM

CC1COc2c(-c3ccnc4[nH]ncc34)c(-c3ccc(F)cc3)nn2C1 (centres unmarked) [Example 191, (R S)-2-(4-Fluorophenyl)-6-methyl-3-(1H-pyrazolo[3,4-b]pyridin-4-yl)-6,7-dihydro-5H-pyrazolo[5,1-b][1,3]oxazine]
IC50 [1]: < 0.5 nM
IC50 [2]: 5 nM

CC1COc2c(-c3ccnc4ccsc34)c(-c3ccc(F)cn3)nn2C1 (centres unmarked) [Example 195, 2-(5-Fluoropyridin-2-yl)-6-methyl-3-(thieno[3,2-b]pyridin-7-yl)-6,7-dihydro-5H-pyrazolo[5,1-b][1,3]oxazine]
IC50 [1]: 21 nM
IC50 [2]: 218 nM

CC1COc2c(-c3ccnc4[nH]ncc34)c(-c3ccc(F)cn3)nn2C1 (centres unmarked) [Example 196, 2-(5-Fluoropyridin-2-yl)-6-methyl-3-(1H-pyrazolo[3,4-b]pyridin-4-yl)-6,7-dihydro-5H-pyrazolo[5,1-b][1,3]oxazine]
IC50 [1]: 2 nM
IC50 [2]: 40 nM

Cc1cc(-c2c(-c3ccc(F)cn3)nn3c2OCC(C)C3)c2cn[nH]c2n1 (centres unmarked) [Example 197, 2-(5-Fluoropyridin-2-yl)-6-methyl-3-(6-methyl-1H-pyrazolo[3,4-b]pyridin-4-yl)-6,7-dihydro-5H-pyrazolo[5,1-b][1,3]oxazine]
IC50 [1]: 3 nM
IC50 [2]: 38 nM

Fc1ccc(-c2nn3c(c2-c2ccnc4[nH]ncc24)OCC2(COC2)C3)cc1 [Example 210, 2-(4-Fluorophenyl)-3-(1H-pyrazolo[3,4-b]pyridin-4-yl)spiro[5,7-dihydropyrazolo[5,1-b][1,3]oxazine-6,3′-oxetane]]
IC50 [1]: < 0.5 nM
IC50 [2]: 23 nM

Cc1cc(-c2c(-c3ccc(F)cc3)nn3c2OCC2(COC2)C3)c2cn[nH]c2n1 [Example 211, 2′-(4-Fluorophenyl)-3′-(6-methyl-1H-pyrazolo[3,4-b]pyridin-4-yl)-5′H,7′H-spiro[oxetane-3,6′-pyrazolo[5,1-b][1,3]oxazine]]
IC50 [1]: 1 nM
IC50 [2]: 6 nM

CC1(C)COc2c(-c3ccnc4[nH]ncc34)c(-c3ccc(F)cc3)nn2C1 [Example 212, 2-(4-Fluorophenyl)-6,6-dimethyl-3-(1H-pyrazolo[3,4-b]pyridin-4-yl)-6,7-dihydro-5H-pyrazolo[5,1-b][1,3]oxazine]
IC50 [1]: < 0.5 nM
IC50 [2]: 1 nM

Cc1cc(-c2c(-c3ccc(F)cc3)nn3c2OCC(C)(C)C3)c2cn[nH]c2n1 [Example 213, 2-(4-Fluorophenyl)-6,6-dimethyl-3-(6-methyl-1H-pyrazolo[3,4-b]pyridin-4-yl)-6,7-dihydro-5H-pyrazolo[5,1-b][1,3]oxazine]
IC50 [1]: 1 nM
IC50 [2]: 2 nM

CC1(C)COc2c(-c3ccnc4ccsc34)c(-c3ccc(F)cn3)nn2C1 [Example 214, 2-(5-Fluoropyridin-2-yl)-6,6-dimethyl-3-(thieno[3,2-b]pyridin-7-yl)-6,7-dihydro-5H-pyrazolo[5,1-b][1,3]oxazine]
IC50 [1]: 9 nM
IC50 [2]: 75 nM

CC(=O)Nc1cc(-c2c(-c3ccc(F)cc3)nn3c2OCCCC3)ccn1 [Example 215, N-(4-(2-(4-Fluorophenyl)-5,6,7,8-tetrahydropyrazolo[5,1-b][1,3]oxazepin-3-yl)pyridin-2-yl)acetamide]
IC50 [1]: 1 nM
IC50 [2]: 28 nM

Fc1ccc(-c2nn3c(c2-c2ccnc4[nH]ncc24)OCCCC3)cc1 [Example 216, 2-(4-Fluorophenyl)-3-(1H-pyrazolo[3,4-b]pyridin-4-yl)-5,6,7,8-tetrahydropyrazolo[5,1-b][1,3]oxazepane]
IC50 [1]: 2 nM
IC50 [2]: 38 nM

Cc1cc(-c2c(-c3ccc(F)cc3)nn3c2OCCCC3)c2cn[nH]c2n1 [Example 217, 2-(4-Fluorophenyl)-3-(6-methyl-1H-pyrazolo[3,4-b]pyridin-4-yl)-5,6,7,8-tetrahydropyrazolo[5,1-b][1,3]oxazepane]
IC50 [1]: 2 nM
IC50 [2]: 25 nM

Fc1ccc(-c2nn3c(c2-c2ccnc4[nH]ncc24)OCCCC3)nc1 [Example 218, 2-(5-Fluoro-2-pyridyl)-3-(1H-pyrazolo[3,4-b]pyridin-4-yl)-5,6,7,8-tetrahydropyrazolo[5,1-b][1,3]oxazepane]
IC50 [1]: 12 nM
IC50 [2]: 239 nM

Cc1cc(-c2c(-c3ccc(F)cn3)nn3c2OCCCC3)c2cn[nH]c2n1 [Example 219, 2-(5-Fluoro-2-pyridyl)-3-(6-methyl-1H-pyrazolo[3,4-b]pyridin-4-yl)-5,6,7,8-tetrahydropyrazolo[5,1-b][1,3]oxazepane]
IC50 [1]: 38 nM
IC50 [2]: 279 nM

Fc1ccc(-c2nn3c(c2-c2ccnc4cn[nH]c24)CCC3)nc1 [Example 220, 7-[2-(5-Fluoro-2-pyridyl)-5,6-dihydro-4H-pyrrolo[1,2-b]pyrazol-3-yl]-1H-pyrazolo[4,3-b]pyridine]
IC50 [1]: 99 nM
IC50 [2]: 1490 nM

Fc1ccc(-c2nn3c(c2-c2c(F)cnc4[nH]ncc24)CCC3)nc1 [Example 221, 5-Fluoro-4-[2-(5-fluoro-2-pyridyl)-5,6-dihydro-4H-pyrrolo[1,2-b]pyrazol-3-yl]-1H-pyrazolo[3,4-b]pyridine]
IC50 [1]: 7 nM
IC50 [2]: 460 nM

From patent US20230339970A1, “CASEIN KINASE 1 DELTA MODULATORS” (priority 2020, published 2023)
